Experimental data published in patent US6596712B2, “Treatment of carcinomas using squalamine in combination with other anti-cancer agents or modalities” (Genaera Corporation, priority 1996, dated 2003).

Columns and labels:
[1] = tested on: H460 human lung adenocarcinoma line; experiment: Nude mouse xenograft model of lung cancer with cisplatin, H460; assay type: in vivo; details: started on day 4 or 5, daily i.p.
Text: Studies in a nude mouse xenograft model of lung cancer have been carried out using several human lung cancer lines which differ in their growth rate. […] The experimental lung cancer model design involves subcutaneous injection of 5×10^6 tumor cells followed by a single injection of the chemotherapeutic drug on day 3 or 4. […] Groups of mice receiving squalamine alone started receiving the aminosterol on the same day as aminosterol treatment in the combination chemotherapy groups. Tumor volumes were then determined at termination of the experiment and compared.

LNCaP cells = experiment: LNCaP xenograft post-orchiectomy (Example 6); assay type: in vivo, athymic mice; details: 20 mg/kg/day for six to ten weeks from castration
Text: LNCaP cells admixed with Matrigelm were implanted subcutaneously in 52 athymic mice. Those that developed measurable tumors and sufficient elevations in serum prostate specific antigen (“PSA”) (measured using a standard commercially available kit such as from Abbott Diagnostics (St. Louis, Mo.)) underwent orchiectomy. Subsequent to castration, these animals were distributed among the four groups (1-4) outlined below: and an additional control cohort of mice which were castrated but never treated with squalamine.
In the majority of animals, PSA levels fell to zero at time of castration. By three weeks they began to rebound and continued to rise steadily until the animals succumbed or were sacrificed. In these same mice, tumor size tended to plateau at time of orchiectomy, before beginning to increase in size correspondingly with PSA rebound. The serum PSA curve and tumor volume measurements from two members of this last control cohort are illustrated in FIG. 15a and b, respectively.
Ten mice began treatment with squalamine concomitant with the fall in PSA after castration (Group 1). Of these, three never experienced a post-orchiectomy PSA nadir, and one experienced an early death, of unknown etiology. Six animals, however, were treated with squalamine (at 20 mg/kg/day) for a range of six to ten weeks. […]

[2] = tested on: Human androgen dependent LNCaP cells; experiment: LNCaP xenograft with hormonal ablation (Example 7); assay type: in vivo, athymic mice
Description: Human androgen dependent LNCaP cells (2×10^6 cells/flank in both flanks) were implanted subcutaneously with an equal volume of Matrigel™ in forty athymic mice. These animals were followed with periodic bleedings until serum human PSA levels exceeded 100 ng/mL and tumor volume measurements exceeded 1000 mm^3 (approximately six weeks after implantation). All animals were then surgically castrated and were randomized into five treatment groups with 8-10 animals per group. One group of animals was not treated further (controls), while a second group immediately began daily intraperitoneal injection of 20 mg/kg/day squalamine (five days per week with a two day respite). A third group of animals began to receive squalamine (20 mg/kg/day squalamine, five days per week with a two day respite) when their serum human PSA levels reached values of 4-10 ng/mL. A fourth group of mice began squalamine treatment (20 mg/kg/day squalamine, five days per week with a two day respite)when serum human PSA values reached 20-40 ng/mL, and a fifth group began squalamine treatment when serum human PSA levels reached 100 ng/mL.
Similarly, the serum human PSA levels fell to undetectable levels with a nadir at two weeks after castration, but by week three the serum human PSA levels began to rise in all control animals. […] For animals treated with squalamine concomitant with the fall in human PSA after castration, six of ten animals were treated for 6-10 weeks. Three mice in this group never experienced a post-orchiectomy PSA nadir, and one mouse experienced an early death of unknown etiology. The remaining six animals in this group experienced a post-orchiectomy PSA nadir of less than 1 ng/mL and maintained this negligible level for the duration of squalamine therapy.
Tissue histology was carried out on the tumor masses (or the site of tumor implantation, in the instance of the animals which underwent successful squalamine treatment) to examine the distribution of integrins in these tissues. […] Thus, part of the mechanism by which squalamine successfully alters LNCaP tumor growth is by interfering with cellular integrin expression that is associated with tumor aggressiveness.

Calu-6 = Calu-6 lung tumor xenograft with carboplatin; assay type: in vivo, nude BALBc mice; details: carboplatin 60 mg/kg i.p. single dose, squalamine 20 mg/kg once daily for 5 days
Description: About 5×10^6 cells from each of two human lung tumor lines, H460 (a rapidly proliferating large cell carcinoma cell line, ATCC HTB-177) and Calu-6 (an anaplastic carcinoma, ATCC HTB-56), were inoculated subcutaneously in the right foreleg of nude BALBc mice. Once tumors were visible (3-5 days) with a mean volume of approximately 50-80 mm^3, mice were treated intraperitoneally with 60 mg/kg carboplatin (single dose) or 20 mg/kg/squalamine (once daily for 5 days) or a combination of carboplatin and squalamine. There were 8 mice per group. Tumor growth inhibition was scored by quantifying the size of tumors once control tumors reached a size of 1.0 gram and determining the ratio of mean treated tumor size to mean control tumor size (T/C). Tumor growth inhibition was then scored as 100% x [1-(T/C)]. A separate antitumor activity variable, tumor growth delay, was scored for the tumors by determining the length of time it required for the mean tumor size in a treatment group to reach a size of 500 mm^3 (B. A. Teicher et al., Anticancer Research 18, 2567-2574 (1998)). The tumor growth inhibition seen with carboplatin plus squalamine was greater than that seen with carboplatin or squalamine alone. The relative inactivity of squalamine as a single agent by this assay endpoint supports the idea that squalamine is synergistic with carboplatin in the inhibition of these two human lung tumor xenografts. Similarly, it was determined that squalamine enhanced the tumor growth delay caused by carboplatin by an enhancement factor of >2.3 (Table 7).

NHE1 = NHE1 (Homo sapiens, UniProt P19634); experiment: NHE1 activity in unstimulated melanoma cells; assay type: cell-based; set-up: endogenous in cells
Chain of NHE1 (P19634 whole entry, species assumed, canonical isoform): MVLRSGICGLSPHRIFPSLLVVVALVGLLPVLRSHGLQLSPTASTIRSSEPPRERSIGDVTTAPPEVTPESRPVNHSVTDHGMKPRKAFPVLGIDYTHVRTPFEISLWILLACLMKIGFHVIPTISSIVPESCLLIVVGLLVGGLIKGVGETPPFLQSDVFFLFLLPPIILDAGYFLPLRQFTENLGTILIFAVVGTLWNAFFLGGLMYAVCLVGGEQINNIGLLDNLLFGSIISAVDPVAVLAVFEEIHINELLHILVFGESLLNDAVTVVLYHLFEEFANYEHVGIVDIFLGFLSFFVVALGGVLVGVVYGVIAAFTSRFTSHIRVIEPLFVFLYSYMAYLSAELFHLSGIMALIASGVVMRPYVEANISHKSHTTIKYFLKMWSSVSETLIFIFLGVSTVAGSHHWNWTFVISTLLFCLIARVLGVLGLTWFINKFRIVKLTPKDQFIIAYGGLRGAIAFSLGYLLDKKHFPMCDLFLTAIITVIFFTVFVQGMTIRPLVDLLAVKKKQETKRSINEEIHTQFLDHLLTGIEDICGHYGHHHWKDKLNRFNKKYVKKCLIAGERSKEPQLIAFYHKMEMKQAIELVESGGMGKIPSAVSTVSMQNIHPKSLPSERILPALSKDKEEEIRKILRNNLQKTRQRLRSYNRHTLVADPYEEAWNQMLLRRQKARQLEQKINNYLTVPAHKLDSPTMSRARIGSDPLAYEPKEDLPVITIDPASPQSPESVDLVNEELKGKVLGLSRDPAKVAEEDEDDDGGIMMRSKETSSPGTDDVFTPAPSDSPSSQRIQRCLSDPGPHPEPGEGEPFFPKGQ
Description: The effect of squalamine on NHE activity was measured to determine which isoforms of NHE were affected by squalamine. NHE activity can be measured under various different cellular conditions. Acid loading a cell activates all of the antiporters and permits measurement of NHE. NHE activity also can be measured after growth factor stimulation of the cell. Additionally, the NHE activity can be measured when the cell is in an unstimulated state, because the antiporters, even if unstimulated, continue to function at a slow, but non-zero rate. In each of these cellular conditions, NHE activity usually is measured in the absence of bicarbonate.
NHE3 in particular is relatively resistant to inhibition by the amilorides.

[3] = tissue histology after successful squalamine treatment

CC(C)[C@@H](CC[C@@H](C)[C@H]1CC[C@H]2[C@@H]3[C@H](O)C[C@H]4C[C@@H](NCCCNCCCCN)CC[C@]4(C)[C@H]3CC[C@]12C)OS(=O)(=O)O [Squalamine, squalamine]
tumor growth, monotherapy [1]: minimal effects on tumor growth | tumor masses (LNCaP cells): tended to diminish and, eventually, disappear | post-orchiectomy PSA nadir ([2]; 20 mg/kg/day i.p. five days per week, 6-10 weeks from castration, six animals): less than 1 ng/mL | tumor masses ([2]; 20 mg/kg/day i.p. from castration): eventually disappeared in all six animals | expression of the integrin α6β4 [2, 3]: increase | expression of the integrin αvβ3 [2, 3]: reduction in the expression | Tumor Growth Inhibition (T/C) (Calu-6): 8% | NHE1 activity in unstimulated melanoma cells (NHE1): substantially down regulates the activity of the antiporter
